Assay results from patent US20240116985A1, “STAPLED PEPTIDES AND METHODS THEREOF” (priority 2020, published 2024).
Where two headings read alike, the source gives them in different places.

Legend:
[1] = biological target: T1, beta-catenin/TCF4 engagement (Homo sapiens, UniProt P35222); assay: Nano-BRET target engagement assay (B-cat-Halo & TCF4-Luc in HEK293 cells); format: cell-based; settings: read-out: NanoBRET Abs IC50
T1 construct: expressed in transfected cells; host or cells: HEK293
T1 sequence (P35222 1-781): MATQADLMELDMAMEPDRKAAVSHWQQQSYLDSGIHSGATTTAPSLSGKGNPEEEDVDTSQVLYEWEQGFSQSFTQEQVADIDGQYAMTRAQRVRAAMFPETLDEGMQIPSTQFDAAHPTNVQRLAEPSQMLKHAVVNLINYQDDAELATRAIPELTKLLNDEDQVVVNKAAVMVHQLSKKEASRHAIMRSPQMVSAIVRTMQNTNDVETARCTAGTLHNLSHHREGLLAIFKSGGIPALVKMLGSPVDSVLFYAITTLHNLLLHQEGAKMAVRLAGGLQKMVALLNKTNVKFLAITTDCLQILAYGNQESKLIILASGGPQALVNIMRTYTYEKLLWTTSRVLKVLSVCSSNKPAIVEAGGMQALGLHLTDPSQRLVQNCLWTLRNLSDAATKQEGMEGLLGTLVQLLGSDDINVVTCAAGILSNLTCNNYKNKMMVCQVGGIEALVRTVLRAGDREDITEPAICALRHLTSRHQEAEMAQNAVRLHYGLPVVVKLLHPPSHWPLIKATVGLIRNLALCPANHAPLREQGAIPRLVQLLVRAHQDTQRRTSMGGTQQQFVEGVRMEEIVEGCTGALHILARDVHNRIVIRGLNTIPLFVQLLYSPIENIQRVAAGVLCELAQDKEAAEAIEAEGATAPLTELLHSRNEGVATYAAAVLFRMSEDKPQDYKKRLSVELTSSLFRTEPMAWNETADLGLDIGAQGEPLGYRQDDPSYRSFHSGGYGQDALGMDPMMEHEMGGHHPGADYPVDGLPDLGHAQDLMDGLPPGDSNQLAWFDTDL

[2] = biological target: T2, full-length beta-Catenin (Uniprot ID P35222) (Homo sapiens, UniProt P35222); assay: Fluorescence polarization IC50 (beta-catenin / 5FAM-TCF4 10-53 competition); format: binding; settings: fluorescence polarization
T2 construct: 10 nM full-length beta-Catenin (Uniprot ID P35222)
T2 sequence (P35222 1-781): T1 sequence (P35222 1-781)

| Structure (SMILES) | IC50 ([1]; absolute IC50) | IC50 ([2]; read-out: beta-Catenin FP IC50) | IC50 ([2]; beta-catenin, read-out: FP EC50) | IC50 [1] |
| --- | --- | --- | --- | --- |
| CC(=O)N1CCC[C@]12CC=CCCCC1(CCCC=CCCCCCC[C@@](C)(C(=O)N[C@@H](Cc3ccsc3)C(=O)N[C@@H](Cc3csc4ccccc34)C(=O)N[C@@H](CCC(N)=O)C(N)=O)NC(=O)[C@H](CC(N)=O)NC(=O)[C@H](Cc3ccccc3)NC(=O)[C@H](C)NC(=O)[C@H](C)NC(=O)[C@H](CN(CCCC(F)(F)F)CC(=O)O)NC(=O)[C@H](CC(=O)O)NC1=O)NC(=O)[C@H](CC(C)(C)C)NC(=O)[C@H](CC(=O)O)NC2=O (stereo partly drawn) [I-1455, Ac-PL3-Asp-Npg-B5-Asp-[Tfb]GA-Ala-Ala-Phe-Asn-S8-3Thi-BztA-Gln-NH2] | 23100 nM | 13 nM | 13 nM | – |
| C[C@@H]1NC(=O)[C@H](C)NC(=O)[C@H](CN(CC(=O)O)CC(F)(F)F)NC(=O)[C@H](CC(=O)O)NC(=O)C2(CCCC=CCCCOC(=O)N3CC[C@@](C(=O)N[C@@H](Cc4ccsc4)C(=O)N[C@@H](Cc4csc5ccccc45)C(=O)N[C@@H](CCC(N)=O)C(N)=O)(C3)NC(=O)[C@H](CC(N)=O)NC(=O)[C@H](Cc3ccccc3)NC1=O)CCCC=CC[C@]1(CCCN1S(C)(=O)=O)C(=O)N[C@@H](CC(=O)O)C(=O)N[C@@H](CC(C)(C)C)C(=O)N2 (stereo partly drawn) [I-1219, MeSO2-PL3-Asp-Npg-B5-Asp-TfeGA-Ala-Ala-Phe-Asn-PyrS2-3Thi-BztA-Gln-NH2] | > 20000 nM | 7 nM | – | – |
| CC(=O)N1CCC[C@]12CC=CCCCC1(CCCC=CCCCOC(=O)N3CC[C@@](C(=O)N[C@@H](Cc4ccccc4C(F)(F)F)C(=O)N[C@@H](Cc4csc5ccccc45)C(=O)N[C@@H](CCC(=O)N(C)C)C(N)=O)(C3)NC(=O)[C@H](CCC(=O)N3CCOCC3)NC(=O)[C@H](Cc3ccccc3)NC(=O)[C@H](C)NC(=O)[C@H](C)NC(=O)[C@H](Cc3cccc(C(=O)O)c3)NC(=O)[C@H](CC(=O)O)NC1=O)NC(=O)[C@H](CC(C)(C)C)NC(=O)[C@H](CC(=O)O)NC2=O (stereo partly drawn) [I-2537, Ac-PL3-Asp-Npg-B5-Asp-3COOHF-Ala-Ala-Phe-MorphGln-PyrS2-2F3MeF-BztA-Me2Gln-NH2] | 2900 nM | 11 nM | – | – |

Continued, values first:

| IC50 ([1]; absolute IC50) | IC50 ([2]; read-out: beta-Catenin FP IC50) | IC50 ([2]; beta-catenin, read-out: FP EC50) | IC50 [1] | Structure (SMILES) |
| --- | --- | --- | --- | --- |
| 3500 nM | 14 nM | – | – | CC(=O)NCCCC[C@@H]1NC(=O)[C@H](Cc2ccccc2)NC(=O)[C@H](C)NC(=O)[C@H](C)NC(=O)[C@H](Cc2cccc(C(=O)O)c2)NC(=O)[C@H](CC(=O)O)NC(=O)C2(CCCC=CCCCOC(=O)N3CC[C@@](C(=O)N[C@@H](Cc4ccccc4C(F)(F)F)C(=O)N[C@@H](Cc4csc5ccccc45)C(=O)N[C@@H](CCC(=O)N(C)C)C(N)=O)(C3)NC1=O)CCCC=CC[C@]1(CCCN1C(C)=O)C(=O)N[C@@H](CC(=O)O)C(=O)N[C@@H](CC(C)(C)C)C(=O)N2 (stereo partly drawn) [I-2540, Ac-PL3-Asp-Npg-B5-Asp-3COOHF-Ala-Ala-Phe-AcLys-PyrS2-2F3MeF-BztA-Me2Gln-NH2] |
| – | 16 nM | – | 6500 nM | CC(=O)N1CCC[C@]12CC=CCCCC1(CCCC=CCCCOC(=O)N3CC[C@@](C(=O)N[C@@H](Cc4ccsc4)C(=O)N[C@@H](Cc4csc5ccccc45)C(=O)N[C@@H](CC(C)C)C(N)=O)(C3)NC(=O)[C@H](CC(C)C)NC(=O)[C@H](Cc3ccccc3)NC(=O)[C@H](C)NC(=O)[C@H](CCC(N)=O)NC(=O)[C@H](Cc3cccc(C(=O)O)c3)NC(=O)[C@H](CC(=O)O)NC1=O)NC(=O)[C@H](CC(C)(C)C)NC(=O)[C@H](CC(=O)O)NC2=O (stereo partly drawn) [I-2056, Ac-PL3-Asp-Npg-B5-Asp-3COOHF-Gln-Ala-Phe-Leu-PyrS2-3Thi-BztA-Leu-NH2] |
| – | 25 nM | – | 15200 nM | CC(=O)N1CCC[C@]12CC=CCCCC1(CCCC=CCCCOC(=O)N3CCC(C(=O)N[C@@H](Cc4ccsc4)C(=O)N[C@@H](Cc4csc5ccccc45)C(=O)N[C@@H](CCC(N)=O)C(N)=O)(CC3)NC(=O)[C@H](CC(C)C)NC(=O)[C@H](Cc3ccccc3)NC(=O)[C@H](C)NC(=O)[C@H](C)NC(=O)[C@H](Cc3cccc(C(=O)O)c3)NC(=O)[C@H](CC(=O)O)NC1=O)NC(=O)[C@H](CC(C)(C)C)NC(=O)[C@H](CC(=O)O)NC2=O (stereo partly drawn) [I-2589, Ac-PL3-Asp-Npg-B5-Asp-3COOHF-Ala-Ala-Phe-Leu-SPip2-3Thi-BztA-Gln-NH2] |
